Data published in patent US5436369A, “Alicyclic phospholipase A2 inhibitors” (Bristol-Myers Squibb Company, priority 1994, dated 1995).

Target: T1, PLA2 (Homo sapiens, UniProt P14555)
T1 construct: The enzyme is isolated from human platelets; from tissue; host or cells: human platelets
T1 sequence (P14555 21-144): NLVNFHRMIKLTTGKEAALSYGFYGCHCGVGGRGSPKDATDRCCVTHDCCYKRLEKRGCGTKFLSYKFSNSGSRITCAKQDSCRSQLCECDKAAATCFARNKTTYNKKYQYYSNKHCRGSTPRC
Assay: PLA2 Inhibition Assay (14C-oleate labeled E. coli membrane substrate)
Type: biochemical
Settings: 100 μM, enzyme isolated from human platelets
Procedure: The method used is similar to that reported by Franson, et al. [Jesse, R. L. and Franson R. C., Biochim. Biophys. Acta 575:467-470 (1979); Franson, R. C., Patriarca, P., and Elsback, P., J. Lipid Res. 15: 380-388 (1974)]. The enzyme is isolated from human platelets. The substrate used consists of ^14 C-oleate labeled Escherichia coli membranes. E. coli cells are grown in the presence of ^14 C-oleic acid and then autoclaved to prepare the membranes.
Various concentrations of test compounds are pre-incubated with PLA2 (3.6 μg/mL in a buffer consisting of 25 mM HEPES (pH 7)), 150 mM NaCl, 5.0 mM CaCl2, and 10% DMSO (v/v, test compound solvent) at 37° C. for 7 minutes. The E. coli membrane substrate is then added (0.1 mM phospholipid, 0.005 μCi ^14 C) and the reaction is then incubated at 37° C. for 30 minutes. The reaction is then terminated by the addition of 1.9 mL tetrahydrofuran (THF), and the entire solution is applied to a solid-phase extraction column (aminopropyl resin, Analytichem). The column is rinsed with an additional 1 mL of THF. The free fatty acid product of the reaction is then eluted from the column with 1 mL of 2% acetic acid in THF and collected in a scintillation vial. The amount of free fatty acid product is determined by liquid scintillation counting. The amount of inhibition produced by the test compound is calculated by comparing the counts obtained in the presence of the compound to those obtained in its absence (solvent only). Background counts were determined by performing incubations in the absence of enzyme.
Percent inhibition is determined by the equation: [formula]

[1] = Table 2, Structure 14 (Type IA)

Row | SMILES | inhibition at 100 µM [1] | inhibition at 100 µM (Table 3, Structure 18 (Type IB))
1 | CC1(C)CCC(C)(C)c2cc(CC/C=C(/C=C\C(=O)O)c3cccc(F)c3)ccc21 [Structure 14i, (2Z),(4Z)-4-(3-Fluorophenyl)-7-(5,6,7,8-tetrahydro-5,5,8,8-tetramethyl-2-naphthalenyl)-2,4-heptadienoic acid] | 96% | 
2 | CC1(C)CCC(C)(C)c2cc(CC/C=C(/C=C/C(=O)O)c3cccc(C(=O)O)c3)ccc21 [Structure 18e, (2E),(4Z)-4-(3-Carboxyphenyl)-7-(5,6,7,8-tetrahydro-5,5,8,8-tetramethyl-2-naphthalenyl)-2,4-heptadienoic acid] |  | 55%
3 | CC1(C)CCC(C)(C)c2cc(CC/C=C(/C=C\C(=O)O)c3ccc(F)cc3)ccc21 [Structure 14h, (2Z),(4Z)-4-(4-Fluorophenyl)-7-(5,6,7,8-tetrahydro-5,5,8,8-tetramethyl-2-naphthalenyl)-2,4-heptadienoic acid] | 96% | 
